{"source": "paper PMC8284453", "about": "(Antimicrobial Agents and Chemotherapy, 2021)", "key": {"CMY-2": {"molecular_target": "T1, CMY-2 (Klebsiella pneumoniae, UniProt Q48434)", "T1 construct": "made in house; host or cells: E. coli BL21(DE3), pET9a", "assay": "IC50 determination against purified β-lactamase", "format": "biochemical"}, "CTX-M-15 [1]": {"molecular_target": "T2, CTX-M-15 (Escherichia coli, UniProt Q9EXV5)", "assay": "IC50 determination against purified β-lactamase", "format": "biochemical", "design": "made in house; host or cells: E. coli BL21(DE3), plasmid pET-CTX-M-15 (pET9a)", "method": "(§1) An equal volume of enzyme was added (assay concentrations, 0.6 nM P99AmpC, 21 nM CTX-M-15, 3 nM KPC-2, 100 nM SHV-5), and the mixtures were preincubated for 15 min at 37°C. For AmpC, nitrocefin was then added to obtain a final concentration of 100 μM, and the absorbance at a wavelength (λ) of 486 nm (representing hydrolysis of the nitrocefin β-lactam ring) was monitored immediately using a BioTek Powerwave XS2 microplate reader. In similar fashion, using UV-transparent 96-well microtiter plates, hydrolysis of imipenem (100 μM) by KPC-2 was monitored at λ 300 nm, while cefotaxime (100 μM) hydrolysis by CTX-M-15 and SHV-5 was monitored at λ 300 nm. Assays were performed in duplicate, and the percentage inhibition relative to reaction mixtures containing no inhibitor were determined for each concentration of inhibitor."}, "P99AmpC [2]": {"molecular_target": "T3, P99AmpC (Enterobacter cloacae, UniProt P05364)", "assay": "IC50 determination against purified β-lactamase", "format": "biochemical", "design": "P99AmpC was purified directly from the Enterobacter cloacae P99 clinical isolate; made in house; host or cells: Enterobacter cloacae P99 (native producer, induced with sub-MIC imipenem)", "details": "substrate nitrocefin; mean from duplicate measurements", "method": "as §1"}, "OXA-1": {"molecular_target": "T4, OXA-1 (Escherichia coli, UniProt P13661)", "T4 construct": "made in house; host or cells: E. coli BL21(DE3), pET9a", "assay": "IC50 determination against purified β-lactamase", "format": "biochemical", "details": "substrate nitrocefin; mean from duplicate measurements"}, "P99AmpC [3]": {"molecular_target": "T3, P99AmpC", "assay": "Kinetic parameters of reversible inactivation"}, "KPC-2 [4]": {"molecular_target": "T5, KPC-2 (Klebsiella pneumoniae, UniProt Q9F663)", "assay": "biochemical"}, "[5]": {"molecular_target": "T6, protein serine/threonine phosphatase, PPP3CA (calcineurin PP2B) (Homo sapiens, UniProt Q08209)", "T6 construct": "Eurofins/Panlabs (DrugMatrixScreen, contract assay)", "assay": "DrugMatrixScreen selectivity panel", "format": "biochemical", "details": "screening concentration of 100 μM", "method": "(§2) Binding, enzymatic, and uptake assays representing a wide range of cellular and subcellular target classes were performed. […] The in vivo significance of these in vitro activities is not known.\n(§3) The selectivity of VNRX-5236 was assessed in the DrugMatrixScreen at Eurofins Discovery Services. This screen encompasses 123 mammalian receptor and enzyme classes (and a single prokaryotic target, a β-lactamase) that can be used to assess the potential off-target activities of development candidates ([34])."}, "[6]": {"molecular_target": "T7, protein tyrosine kinase Fyn (Homo sapiens, UniProt P06241)", "T7 construct": "Eurofins/Panlabs (DrugMatrixScreen, contract assay)", "assay": "DrugMatrixScreen selectivity panel", "format": "biochemical", "details": "screening concentration of 100 μM", "method": "as §2, §3"}, "SHV-5": {"molecular_target": "T8, SHV-5 (Klebsiella pneumoniae, UniProt P0A3M1)", "T8 construct": "made in house; host or cells: E. coli BL21(DE3)/pLysS, plasmid pET-SHV-5 (pET9a)", "assay": "biochemical", "format": "biochemical"}, "[7]": {"tested_on": "four strains of Gram-positive organisms or nine strains of Gram-negative bacilli", "assay": "Stand-alone antibacterial activity", "format": "cell-based", "details": "all MICs"}, "[8]": {"tested_on": "serine β-lactamases (CTX-M-15, SHV-5, KPC-2, P99AmpC)", "assay": "Kinetic parameters, summary across enzymes", "format": "biochemical", "details": "range across the four enzymes"}, "CTX-M-15 [9]": {"molecular_target": "T2, CTX-M-15", "assay": "biochemical"}, "KPC-2 [10]": {"molecular_target": "T5, KPC-2", "assay": "IC50 determination against purified β-lactamase", "format": "biochemical", "design": "made in house; host or cells: E. coli BL21(DE3), plasmid pET-KPC-2 (pET9a)", "details": "substrate imipenem; mean from duplicate measurements", "method": "as §1"}, "HeLa": {"tested_on": "HeLa", "assay": "Mammalian cell cytotoxicity", "format": "cell-based", "details": "dividing cell cultures", "method": "(§4) Mammalian cell cytotoxicity. Cytotoxicity evaluations were conducted on actively dividing cells to maximize assay sensitivity. Procedurally, 180 μl of cells were seeded in cell-culture-treated 96-well plates (Celltreat, Pepperell, MA) at a density of 2 × 10^4 to 3.5 × 10^4 cells/ml and incubated overnight at 37°C in a humidified, 5% CO2 atmosphere. The next day, compound was diluted in PBS with 6% DMSO in a 0.5 log10 dilution scheme at 10 times the final compound concentration array. […] The cytotoxic agent chlorohexidine was assayed as a positive control at compound concentrations ranging from 0.31 to 100 μg/ml. The final DMSO concentration in all assays was 0.6%.\n(§5) After an additional 72 h of incubation (when cells reached 90 to 100% confluence) Cell Titer 96 AQ solution was added at 20 μl per well, and plates were incubated an additional 2 to 4 h at 37°C and 5% CO2. The optical density of the wells was read on a Biotek Cytation 3 plate reader at 490 nm. Background signal (wells receiving Cell Titer reagent but containing no cells) was subtracted from all wells on the plate. […] Experiments were run in triplicate with data from all three trials included in the data analysis."}, "MRC-5": {"tested_on": "MRC-5", "assay": "Mammalian cell cytotoxicity", "format": "cell-based", "details": "dividing cell cultures", "method": "as §4, §5"}, "3T3": {"tested_on": "3T3", "assay": "Mammalian cell cytotoxicity", "format": "cell-based", "details": "dividing cell cultures", "method": "as §4, §5"}, "[11]": {"assay": "DrugMatrixScreen selectivity panel", "details": "10 μM; 129 in vitro assays", "method": "as §2, §3"}, "[12]": {"design": "method as in earlier work", "details": "cited from earlier work"}, "[13]": {"details": "half-life of active site occupancy"}}, "note": "Like-named read-outs stand apart in the source and are kept apart here.", "data": [{"smiles": "NC(=O)[C@@H]1CC[C@@H]2CN1C(=O)N2OS(=O)(=O)O", "note": "[Avibactam, avibactam]", "values": [{"measurement": "IC50", "setting": "CMY-2; substrate nitrocefin, mean from duplicate measurements, read-out: IC50", "value": 7, "unit": "nM"}, {"measurement": "IC50", "setting": "CTX-M-15 [1]; substrate cefotaxime, mean from duplicate measurements, read-out: IC50", "value": 3, "unit": "nM"}, {"measurement": "IC50", "setting": "P99AmpC [2]", "value": 20, "unit": "nM"}, {"measurement": "IC50", "setting": "OXA-1", "value": 40, "unit": "nM"}]}, {"smiles": "CCC(=O)N[C@H]1Cc2cccc(C(=O)O)c2OB1O", "note": "[VNRX-5236]", "values": [{"measurement": "t1/2", "setting": "P99AmpC [3]; [13]", "value": "5 ± 0.1", "unit": "min"}, {"measurement": "k−2", "setting": "P99AmpC [3]; off rate, jump dilution", "value": "24 ± 0.5 10^−4 s^−1"}, {"measurement": "Ki", "setting": "KPC-2 [4]", "value": 110, "unit": "nM"}, {"measurement": "t1/2", "setting": "KPC-2 [4]; [13]", "value": "46 ± 2", "unit": "min"}, {"measurement": "k−2", "setting": "KPC-2 [4]; off rate, jump dilution", "value": "2.5 ± 0.1 10^−4 s^−1"}, {"measurement": "IC50", "setting": "CMY-2", "value": 10, "unit": "nM"}, {"measurement": "inhibition at 100 µM", "setting": "[5]", "value": 56, "unit": "%"}, {"measurement": "inhibition at 100 µM", "setting": "[6]", "value": 77, "unit": "%"}, {"measurement": "Ki", "setting": "SHV-5", "value": 40, "unit": "nM"}, {"measurement": "k−2", "setting": "SHV-5; off rate, jump dilution", "value": "12.7 ± 0.07 10^−4 s^−1"}, {"measurement": "MIC", "setting": "[7]", "value": "≥ 128", "unit": "µg/mL"}, {"measurement": "IC50", "setting": "CTX-M-15 [1]", "value": 20, "unit": "nM"}, {"measurement": "Dissociation rates (k-2)", "setting": "[8]", "value": "2.5 to 24 10^−4 s^−1"}, {"measurement": "Ki", "setting": "[8]", "value": "10 to 110", "unit": "nM"}, {"measurement": "Ki", "setting": "CTX-M-15 [9]", "value": 10, "unit": "nM"}, {"measurement": "t1/2", "setting": "CTX-M-15 [9]; [13]", "value": "26 ± 0.6", "unit": "min"}, {"measurement": "k−2", "setting": "CTX-M-15 [9]; off rate, jump dilution", "value": "4.5 ± 0.1 10^−4 s^−1"}, {"measurement": "IC50", "setting": "KPC-2 [10]", "value": 80, "unit": "nM"}, {"measurement": "IC50", "setting": "OXA-1", "value": 70, "unit": "nM"}, {"measurement": "noncytotoxic up to the highest concentration tested", "setting": "HeLa", "value": "> 1", "unit": "mg/mL"}, {"measurement": "noncytotoxic up to the highest concentration tested", "setting": "MRC-5", "value": "> 1", "unit": "mg/mL"}, {"measurement": "noncytotoxic up to the highest concentration tested", "setting": "3T3", "value": "> 1", "unit": "mg/mL"}]}, {"smiles": "CCC(=O)N[C@H]1Cc2cccc(C(=O)OCOC(=O)C(CC)CC)c2OB1O", "note": "[VNRX-7145]", "values": [{"measurement": "MIC", "setting": "[7]", "value": "≥ 128", "unit": "µg/mL"}, {"measurement": "off-target findings", "setting": "[11]", "value": "no notable off-target findings"}, {"measurement": "levels of circulating VNRX-7145", "setting": "[12]; all PK time points", "value": "exceedingly low"}, {"measurement": "oral bioavailability", "setting": "[12]; rats, dogs, and monkeys", "value": "high oral bioavailability"}, {"measurement": "noncytotoxic up to the highest concentration tested", "setting": "MRC-5", "value": "> 0.128", "unit": "mg/mL"}, {"measurement": "noncytotoxic up to the highest concentration tested", "setting": "3T3", "value": "> 0.128", "unit": "mg/mL"}]}]}
